Test systems include 786-0 renal; HCT-116 colon; HCT-15 colon; NCI-H23 lung; NCI-H522 lung; OVCAR-8 ovarian; RPMI-8226 leukemia; U251 CNS; BT-549 breast.
What all share (assay): NCI-60 cell line screen, 48 h

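Five concentrations, 48 hours, 96-well plates. Here, GI50 denotes the concentration required for 50% inhibition of growth. Definition used: TGI = concentration required for complete inhibition of growth.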

As for `CC(=O)Nc1ccc(SC#N)c2c(NC(C)=O)cccc12`, the TGI is greater than 100 µM with 786-0 renal; greater than 100 µM in the assay with HCT-116 colon; greater than 100 µM in the assay on HCT-15 colon; greater than 100 µM in the assay with NCI-H23 lung; greater than 78.4 µM with NCI-H522 lung; greater than 100 µM with OVCAR-8 ovarian. Besides, the results for the TGI with RPMI-8226 leukemia and in the assay with U251 CNS were 73.9 µM and greater than 100 µM, respectively.

As to `Cc1ccc(-c2nnc(-c3nn(-c4ccccc4)c4nc5ccccc5nc34)o2)cc1`, the TGI was 21.6 µM in the assay with 786-0 renal; 25 µM with HCT-116 colon; greater than 100 µM in the assay on HCT-15 colon; 40.6 µM in the assay with NCI-H23 lung; 48.7 µM in the assay on NCI-H522 lung; 25.7 µM in the assay on OVCAR-8 ovarian. Moreover, the TGI is greater than 100 µM in the assay with RPMI-8226 leukemia and 59.1 µM in the assay on U251 CNS.

`Cc1ccc2c(C3Cc4ccccc4N3C(=O)/C=C\C(=O)O)c(C)[nH]c2c1` (configuration not stated): the TGI with 786-0 renal is greater than 100 µM; in the assay on HCT-116 colon, greater than 100 µM; in the assay on HCT-15 colon it was 72.5 µM; in the assay on NCI-H23 lung, greater than 100 µM; in the assay with NCI-H522 lung it was 48.6 µM; with OVCAR-8 ovarian, greater than 100 µM. For the same compound, the TGI with RPMI-8226 leukemia is 79.7 µM; in the assay on U251 CNS, greater than 100 µM.

As for `COc1ccc(C=O)c([N+](=O)[O-])c1`, the TGI in the assay with 786-0 renal was greater than 100 µM; in the assay with HCT-116 colon it was 26.4 µM; with HCT-15 colon it was greater than 100 µM; in the assay on NCI-H23 lung, greater than 100 µM; in the assay on NCI-H522 lung it was greater than 100 µM; in the assay with OVCAR-8 ovarian it was greater than 100 µM. Besides, the TGI with RPMI-8226 leukemia and in the assay with U251 CNS was greater than 100 µM each time.

For `CCOC(=O)C1C(=S)NC(=O)C1C#N` (configuration not stated), the TGI in the assay on 786-0 renal, in the assay with HCT-15 colon, in the assay with NCI-H23 lung, with NCI-H522 lung, in the assay with OVCAR-8 ovarian and with RPMI-8226 leukemia was greater than 100 µM throughout. Besides, the TGI with U251 CNS is greater than 100 µM.

Consider `COC(=O)C1(C)CCc2c(OC)ccc(OC)c2C1=O` (configuration not stated), for which the TGI in the assay with 786-0 renal, with HCT-116 colon, in the assay with HCT-15 colon, in the assay on NCI-H23 lung, with NCI-H522 lung and in the assay with OVCAR-8 ovarian was greater than 100 µM throughout. In addition, the TGI in the assay with RPMI-8226 leukemia and in the assay on U251 CNS was greater than 100 µM in each case.

As for `COC(=O)C1CC2CC(=NNC(N)=O)CC2C1` (configuration not stated), the TGI in the assay on 786-0 renal, in the assay with HCT-116 colon, in the assay on HCT-15 colon, in the assay with NCI-H23 lung, with NCI-H522 lung and with OVCAR-8 ovarian was greater than 100 µM throughout. For the same compound, the TGI in the assay on RPMI-8226 leukemia and with U251 CNS was greater than 100 µM throughout.

Turning to `CO[C@H]1CC(O[C@@H]2/C(C)=C/C[C@@H]3C[C@@H](C[C@]4(C=C[C@H](C)[C@@H](C5CCCCC5)O4)O3)OC(=O)[C@@H]3C=C(C)[C@@H](O)[C@H]4OC/C(=C\C=C\[C@@H]2C)[C@]43O)O[C@@H](C)C1O[C@H]1C[C@H](OC)[C@@H](O)[C@H](C)O1` (some centres not stated), the GI50 was 1.54 µM in the assay on 786-0 renal; 1.78 µM in the assay on BT-549 breast; 1.4 µM in the assay on HCT-116 colon; 2.07 µM in the assay on OVCAR-8 ovarian; 1.39 µM in the assay with RPMI-8226 leukemia. In addition, the TGI came out at 3.14 µM with 786-0 renal; 3.24 µM in the assay with BT-549 breast; 2.72 µM in the assay with HCT-116 colon; 5.29 µM with OVCAR-8 ovarian; 4.38 µM with RPMI-8226 leukemia.

As for `CC#CCC1CCC(OCC)=CC1=O` (configuration not stated), the TGI in the assay on 786-0 renal, in the assay with HCT-116 colon, with HCT-15 colon, in the assay with NCI-H23 lung, in the assay with NCI-H522 lung and in the assay with OVCAR-8 ovarian was greater than 100 µM throughout. Moreover, the TGI in the assay on RPMI-8226 leukemia and in the assay on U251 CNS was greater than 100 µM throughout.

With `O=C1CC(c2c[nH]c3ccccc23)C(=O)N1` (configuration not stated), the TGI with 786-0 renal, with HCT-116 colon, in the assay with HCT-15 colon, in the assay on NCI-H23 lung, in the assay with OVCAR-8 ovarian and in the assay on RPMI-8226 leukemia was greater than 100 µM throughout. The same compound registered a TGI in the assay on U251 CNS greater than 100 µM.

On to `O=C1c2c(c3c4ccccc4[nH]c3c3ccc4ccccc4c23)C(=O)N1CCN1CCNCC1`, for which the GI50 with 786-0 renal is 1.76 µM; in the assay with BT-549 breast it was 1.58 µM; with HCT-116 colon, 1.59 µM; with HCT-15 colon, 1.49 µM; in the assay with NCI-H23 lung it was 1.84 µM; with NCI-H522 lung it was 1.75 µM. Also, the GI50 is 1.81 µM in the assay with RPMI-8226 leukemia and 1.64 µM with U251 CNS. In addition, the TGI stood at 3.21 µM in the assay on 786-0 renal; 2.97 µM with BT-549 breast; 3.06 µM with HCT-116 colon; 2.98 µM in the assay on HCT-15 colon; 3.7 µM with NCI-H23 lung; 3.61 µM in the assay on NCI-H522 lung. In addition, the TGI was determined as 4.1 µM in the assay with RPMI-8226 leukemia and 3.21 µM with U251 CNS.

Take `N#CC(=C1C=CC(=NO)C=C1)c1ccc(Cl)cc1`: the TGI in the assay with 786-0 renal came out at 5.69 µM; with HCT-116 colon, 21.6 µM; in the assay on HCT-15 colon, 49.6 µM; in the assay with NCI-H23 lung, 75.3 µM; in the assay on NCI-H522 lung, 7.66 µM; in the assay on OVCAR-8 ovarian it was 60.3 µM. For the same compound, the TGI in the assay with RPMI-8226 leukemia was 15.3 µM; in the assay on U251 CNS it was 34.3 µM.

For the compound `COc1cc2c(c(OC)c1OC)-c1ccc(SC)c(=O)cc1C(NC(=O)c1ccccc1)CC2` (configuration not stated), the TGI with 786-0 renal was 38.3 µM; in the assay with BT-549 breast, greater than 31.6 µM; with HCT-116 colon, 0.188 µM; in the assay on NCI-H23 lung it was 0.903 µM; in the assay with NCI-H522 lung it was less than 0.0316 µM; in the assay with OVCAR-8 ovarian, 24.6 µM. The figures for the TGI in the assay on RPMI-8226 leukemia and in the assay on U251 CNS were 52.5 µM and 4.18 µM, respectively.

`Cc1c(/C=N/N=C/c2[nH]c(C(=O)OC(C)(C)C)c(C)c2C)[nH]c(C(=O)OC(C)(C)C)c1C`: the TGI with 786-0 renal, in the assay on HCT-116 colon, with HCT-15 colon, in the assay with NCI-H23 lung, with NCI-H522 lung and in the assay on OVCAR-8 ovarian was greater than 100 µM in each case. The TGI in the assay on RPMI-8226 leukemia and in the assay on U251 CNS was greater than 100 µM in each case.

On to `O=C(NC1CCCCC1)NS(=O)(=O)c1ccc2c(c1)CCC2`, for which the TGI in the assay on 786-0 renal, in the assay on HCT-15 colon, in the assay with NCI-H23 lung, with NCI-H522 lung, in the assay on OVCAR-8 ovarian and in the assay on RPMI-8226 leukemia was greater than 100 µM throughout. In the assay on U251 CNS, the TGI was greater than 100 µM.

The record behind these values is PubChem BioAssay (NCI).
